Experimental findings from patent US9447157B2, “Nitration shielding peptides and methods of use thereof” (Augusta University Research Institute, Inc., priority 2013, dated 2016) are described below.

In experiment [1] the target is T1, PKG-1α (Homo sapiens, UniProt Q13976).
T1 construct: transfected with an expression plasmid containing a full length WT-PKG-1α cDNA; made in house; host or cells: HEK-293T (methods); the results paragraph b527 says PASMC
T1 sequence (Q13976 2-671): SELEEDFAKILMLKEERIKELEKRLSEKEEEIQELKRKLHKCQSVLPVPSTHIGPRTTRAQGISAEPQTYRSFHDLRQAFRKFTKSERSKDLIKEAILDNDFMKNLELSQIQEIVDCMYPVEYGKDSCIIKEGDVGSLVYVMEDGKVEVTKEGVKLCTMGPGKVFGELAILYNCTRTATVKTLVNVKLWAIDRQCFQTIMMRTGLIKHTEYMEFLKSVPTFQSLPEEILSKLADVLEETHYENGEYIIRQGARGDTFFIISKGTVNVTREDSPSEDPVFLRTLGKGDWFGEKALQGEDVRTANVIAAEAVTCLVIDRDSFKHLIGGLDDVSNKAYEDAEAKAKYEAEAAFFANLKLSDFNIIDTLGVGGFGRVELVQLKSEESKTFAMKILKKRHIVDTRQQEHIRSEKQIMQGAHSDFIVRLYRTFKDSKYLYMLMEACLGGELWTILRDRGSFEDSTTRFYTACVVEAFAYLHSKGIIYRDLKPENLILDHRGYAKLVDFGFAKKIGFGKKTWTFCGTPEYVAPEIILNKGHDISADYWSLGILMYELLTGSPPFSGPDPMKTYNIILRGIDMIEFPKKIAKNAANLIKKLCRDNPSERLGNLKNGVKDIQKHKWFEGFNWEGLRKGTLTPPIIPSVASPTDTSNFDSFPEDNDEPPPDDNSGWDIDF
The experiment is described as follows: PKG-1α nitration (IP, 3-NT blot) in transfected HEK-293T cells. The experiment is classed as cell-based. As to conditions: HEK-293T expressing WT-PKG-1α, SIN-1 500 μM 30 min. As to the method: (§1) Cells were homogenized in 3× weight/volume of IP buffer (25 mM Hepes, pH 7.5, 150 mM NaCl, 1% NP-40, 10 mM MgCl2, 1 mM EDTA, 2% glycerol, supplemented with protease inhibitor). The homogenates were then centrifuged at 20,000 g at 4° C. for 20 min, the supernatant was collected, and the protein concentration was quantified by the Bio-Rad DC Protein Assay. To 1000 μg of total protein, 4 μg of antibody against PKG-1α was added; the volume was brought to 1 ml with IP buffer, and the mixture was nutated at 4° C. overnight. To precipitate the bound protein, 30 μl of protein G plus agarose suspension (EMD biosciences, Inc., San Diego, Calif.) was added, and the samples were nutated for 2 h at 4° C. To collect the bead-bound antibody, the samples were then centrifuged at 2000 g for 5 min at 4° C., the supernatant was removed, and the beads were washed 3× with 500 μl of IP buffer. […]
(§2) To determine the role of tyrosine 247 and tyrosine 425 in mediating the nitration dependent inhibition of PKG-1α kinase activity, Y247F- and Y425F-PKG-1α mutants were generated and expressed in HEK-293T cells. […] Protein extracts were immunoprecipitated using an antibody raised against PKG-1α and the level of nitrated PKG-1α determined by probing the membranes with an antiserum raised against 3-NT. […]

Experiment [2] deals with PKG-1α. The experiment is described as above. As to conditions: HEK-293T expressing Y247F- or Y425F-PKG-1α, SIN-1 500 μM 30 min. The experiment is classed as cell-based, human. As to the method: as §1, §2
For experiment [3], the system named is Pulmonary artery smooth muscle cells (PASMC). The experiment is described as follows: PASMC cell growth (cell count). The experiment is classed as cell-based, lamb. Conditions: SIN-1 500 μM 48 h. Here is the method: Pulmonary artery smooth muscle cells (PASMC) were grown on a 10 cm dish to 75% confluence, transfected with WT-PKG-1α or Y247F-PKG-1α cDNA using a Qiagen transfection kit, according to manufacturer's instructions, and incubated at 37° C. for 20 h. […] The cells were then trypsinized, seeded onto a 6-well plate at a density of 2.5×10^4 cells per well, and grown for an additional 4 h in serum-free DMEM growth medium containing 1% FBS and antibiotics. The cells were then treated with or without SIN-1 (500 μM) and allowed to grow at 37° C. in the incubator for an additional 48 h. The cellular proliferation was evaluated by counting the cells with a hemacytometer (Cascade Biologicals™, Portland, Oreg.) after the trypsinization of the PASMC monolayers.

On to “3-morpholinosydnonimine N-ethylcarbamide [SIN-1]”, for which the “Nitration of WT-PKG-1α” value at PKG-1α [1] is recorded as “significantly increased”. Moreover, the “Nitration levels of Y247F- or Y425F-PKG-1α” value in the experiment on PKG-1α [2] is listed as “no significant increases”. Also, the “Proliferation, WT-PKG-1α transfected PASMC” value in experiment [3] is listed as “stimulated”.
